Assay results as given in PubChem BioAssay AID179 (DTP/NCI, 2004).
Activity calls are given as the source filed them.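 Rule for the calls: active = compounds giving half or more protection of infected cells from virus-caused growth loss, again on retest; inactive = the rest.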 Where a SMILES comes first, the peptide text is derived from it. The star is where a group is joined. Myristoyl = CCCCCCCCCCCCCC(=O)*

Tested on: CEM cells HIV-1 protection, formazan growth assay
Test: NCI AIDS Antiviral Assay
Details: for IC50: measured here: growth of uninfected CEM cells
Outline: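 Human CEM cells, uninfected and HIV-1-infected, exposed to five drug concentrations; growth measured by soluble formazan assay and scored as percent protection from infection, with protecting compounds retested.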

## Clc1ccc(C2=NN(c3ccccc3)C3c4cc(Br)ccc4OCC23)cc1 (centres undefined)
  EC50: > 11.7 µM
  IC50: > 11.7 µM

## O=C1c2ccccc2C(=O)N1CCn1ccc(NC(c2ccccc2)(c2ccccc2)c2ccccc2)nc1=O
  EC50: > 13.8 µM
  IC50: > 13.8 µM

## COc1nc(NC2OC(COC(C)=O)C(OC(C)=O)C(OC(C)=O)C2OC(C)=O)c(N=CC=Nc2c(NC3OC(COC(C)=O)C(OC(C)=O)C(OC(C)=O)C3OC(C)=O)nc(OC)n(C)c2=O)c(=O)n1C (centres undefined)
  outcome: inactive

## O=C(/C=C(/SS/C(=C/C(=O)c1ccccc1)c1ccccc1)c1ccccc1)c1ccccc1
  EC50: > 200 µM
  IC50: 2.51 µM

## COC(=O)c1cc(=O)n2c(c1C(C)=O)N(C)CC2
  EC50: > 427 µM
  IC50: > 427 µM

## O=C1CC(Br)C(c2ccccc2)(c2ccccc2)O1 (centres undefined)
  EC50: > 81.3 µM
  IC50: > 81.3 µM

## CC1=CC2CC(C)=C(CC[C@]3(C)CC[C@H]([C@@H](C)C(=O)O)OO3)C(C)(C)C2CC1 (some centres undefined)
  outcome: inactive

## COc1ccc(/C=N/NC(=O)c2sc(=S)n(-c3ccccc3)c2N)cc1
  EC50: > 9.77 µM
  IC50: > 9.77 µM

## COc1ccc2nc(N/N=C/c3ccc(C)s3)cc(C)c2c1
  EC50: > 200 µM
  IC50: 12.9 µM

## COC(=O)c1cc(C(=O)OC)c(C/C(=N/NC(=O)C[N+](C)(C)C)C(=O)Nc2cccc(C(F)(F)F)c2)nc1C/C(=N/NC(=O)C[N+](C)(C)C)C(=O)Nc1cccc(C(F)(F)F)c1
  EC50: > 200 µM
  IC50: 105 µM

## O=C(Nc1ccc(F)cc1)C(=O)C(C(=O)c1ccccc1F)C1OC(=O)c2ccccc21 (centres undefined)
  EC50: > 302 µM
  IC50: 18.2 µM

## CN(C)C(=S)/N=c1\ssc(=S)n1C
  outcome: inactive

## COP(=O)(OC)/C(C#N)=C/c1ccoc1
  EC50: > 1100 µM
  IC50: > 1100 µM

## COc1cccc(OC)c1OC(=O)Nc1ccccc1F
  EC50: > 200 µM
  IC50: > 200 µM

## NC(=O)c1ccc2c(c1)-c1nc-2nc2[n-]c(nc3nc(nc4[n-]c(n1)c1ccc(C(N)=O)cc41)-c1ccc(C(N)=O)cc1-3)c1ccc(C(N)=O)cc21.[Co+2]
  EC50: > 9.77 µM
  IC50: 6.61 µM

## CCNc1ccccc1S(=O)(=O)c1ccccc1[N+](=O)[O-]
  EC50: > 0.741 µM

## CSc1nc(NC2OCC(O)C(O)C2O)c(N)c(=O)n1C (centres undefined)
  outcome: inactive

## O=C1CCCCCN1c1ccccn1
  EC50: > 1320 µM
  IC50: > 1320 µM

## O=c1cc(SCc2ccccc2Cl)[nH]c(=O)[nH]1
  EC50: > 115 µM
  IC50: > 115 µM

## Cc1cc(NS(=O)(=O)c2ccc(NC(=O)c3ccc4nc5ccccc5c(Nc5ccc(S(N)(=O)=O)cc5)c4c3)cc2)no1
  EC50: > 81.3 µM
  IC50: 29.5 µM

## COC(=O)c1cc(OS(=O)(=O)C(F)(F)F)c(=O)n2c1CCCC2
  EC50: > 200 µM
  IC50: 89.1 µM

## Cc1cc(Cc2c(F)c(F)c(C(c3cc(C)no3)c3c(F)c(F)c(F)c(F)c3F)c(F)c2F)on1 (centres undefined)
  EC50: > 200 µM
  IC50: 3.39 µM

## O=C1c2ccccc2C(c2ccccc2)(N2CCCCC2)N1c1ccccc1 (centres undefined)
  EC50: > 17.4 µM
  IC50: > 17.4 µM

## CCOC(=O)C(C(C)=O)C(c1ccc(N(C)C)cc1)C(C(C)=O)C(=O)OCC (centres undefined)
  EC50: > 200 µM
  IC50: > 200 µM

## C[C@]12CCCC(=O)C1C[C@H](C(=O)O)CC2 (some centres undefined)
  outcome: inactive

## CC1(C)N=C(C(N)=O)c2ncn(-c3ccccc3)c2N1
  EC50: > 200 µM
  IC50: > 200 µM

## C=CCC1C(=O)CC2(C)CC(=O)C(CC=C)C12C (centres undefined)
  outcome: inactive

## Cc1c(C(=O)CC(=O)C(=O)Nc2cccc(C(F)(F)F)c2)[n+](=O)c2ccccc2n1[O-]
  EC50: > 40.7 µM
  IC50: 3.55 µM

## CSc1sc(=S)sc1C(=O)N(C)c1ccccc1
  EC50: > 200 µM
  IC50: > 200 µM

## C/C(CC(=O)Nc1ccc(NC(=O)C/C(C)=N\NC(N)=O)cc1)=N/NC(N)=O
  EC50: > 240 µM
  IC50: > 240 µM

## CC1=C(C(=O)Nc2cccc(C(F)(F)F)c2)C(c2ccc(O)cc2)C(C(=O)Nc2cccc(C(F)(F)F)c2)=C(C)N1
  EC50: > 32.4 µM
  IC50: > 32.4 µM

## CCOC(=O)NC(Nc1ccc(F)c(F)c1)(C(=O)OCC)C(F)(F)F (centres undefined)
  EC50: > 200 µM
  IC50: > 200 µM

## COc1cc(C2c3cc4c(cc3C(O)[C@H]3COC(=O)C23)OCO4)cc(OC)c1O (some centres undefined)
  EC50: > 200 µM
  IC50: 0.0631 µM

## CC1OC(OC2C(Oc3cc(O)c4c(=O)cc(-c5ccc(O)cc5)oc4c3)OC(CO)C(O)C2O)C(O)C(O)C1O (centres undefined)
  EC50: > 427 µM
  IC50: > 427 µM

## O=C(O)CC(Cc1ccc2c(c1)OCO2)C(=O)O (centres undefined)
  EC50: > 200 µM
  IC50: > 200 µM

## CC1(C)CC2=NO[Se]3=C2C(=NO3)C1
  EC50: > 3.55 µM
  IC50: 0.191 µM

## C[C@@H](NC(=O)c1ccccc1SC(=O)OCCCCCl)C(N)=O
  EC50: 2.4 µM
  IC50: 195 µM

## Cc1cccc(NC(=S)Nc2ccc(Cl)cc2)n1
  EC50: > 200 µM
  IC50: > 200 µM

## CCCNC(=O)c1ccccc1C(=O)C(Cl)c1ccccc1 (centres undefined)
  EC50: > 214 µM
  IC50: > 214 µM

## O=C(Cc1ccccc1)N/N=C(/c1nc2ccc([N+](=O)[O-])cc2[nH]c1=O)C(O)c1ccc(C(O)/C(=N/NC(=O)Cc2ccccc2)c2nc3ccc([N+](=O)[O-])cc3[nH]c2=O)cc1 (centres undefined)
  EC50: > 155 µM
  IC50: 52.5 µM

## Cc1cccc2[nH]c3c(c(O)cc4[nH]c5cccc(C)c5c(=O)c43)c(=O)c12
  EC50: > 200 µM
  IC50: 20.9 µM

## CC(=O)CC(O)(C(F)(F)Cl)C(F)(Cl)Cl (centres undefined)
  EC50: > 200 µM
  IC50: > 200 µM

## Cc1ccc2nc(NC(=S)SSC(=S)Nc3nc4ccc(C)cc4s3)sc2c1
  EC50: > 200 µM
  IC50: 0.537 µM

## Fc1cccc(F)c1C1SCc2nc3cc(Cl)ccc3n21 (centres undefined)
  EC50: > 200 µM
  IC50: 182 µM

## Cc1cccc(Nc2nc3ccccc3nc2NS(=O)(=O)c2ccc(N)cc2)c1
  EC50: > 200 µM
  IC50: 112 µM

## C[C@H]1NC(=O)C2CCCCN2C(=O)CN(C)C(=O)CNC(=O)C2CCCCN2C(=O)[C@@H](NC(=O)c2nc3ccccc3cc2O)[C@@H](C)NC(=O)C2CCCCN2C(=O)CN(C)C(=O)CNC(=O)[C@@H]2CCCCN2C(=O)C1NC(=O)c1nc2ccccc2cc1O (some centres undefined)
  EC50: > 10.5 µM
  IC50: 0.0427 µM

## O=C1C2CCCC1C1/C(=[N+](/[O-])O)C=C([N+](=O)[O-])C2C1[N+](=O)[O-] (centres undefined)
  EC50: > 234 µM
  IC50: > 234 µM

## O=C1N[C@@H](O)[C@@H]2ON=C(c3ccccc3)[C@H]12
  EC50: > 1150 µM
  IC50: > 1150 µM

## CN(C)CCOCn1nnc2ccccc21
  outcome: inactive

## O=C(/C=C/c1ccccc1)c1ccc(Cl)s1
  EC50: > 200 µM
  IC50: 12.3 µM

## COc1ccc(/C(=N/NC(N)=O)C(c2ccc(OC)cc2)C2C(=O)Oc3ccccc32)cc1 (centres undefined)
  EC50: > 30.2 µM
  IC50: > 30.2 µM

## COc1cc(Cc2nnc(SC)nc2C)cc(OC)c1OC
  EC50: 10 µM
  IC50: 22.4 µM

## O=C(O)c1ccccc1/C=C1\Cc2ccccc2C1=O
  EC50: > 200 µM
  IC50: 120 µM

## O=C1OC(=O)C2C1C(c1ccc(Cl)cc1)N1C3C(=O)OC(=O)C3C(c3ccc(Cl)cc3)N21 (centres undefined)
  EC50: > 28.8 µM
  IC50: > 28.8 µM

## Cc1ccc2c(c1C)CC1(Cc3c(ccc4c3CCC4)C1=O)C2=O (centres undefined)
  EC50: > 100 µM
  IC50: > 100 µM

## COC1=CC(=O)C2[C@H]3Cc4ccccc4[C@H]3C2(C)C1=O (some centres undefined)
  EC50: > 51.3 µM
  IC50: > 51.3 µM

## CC(C)(C)C1=Cc2cc3cc(C(C)(C)C)[nH]c(=O)c3cc2S(=O)(=O)N1
  EC50: > 7.59 µM
  IC50: > 7.59 µM

## c1ccc2c(c1)oc1cc3c(cc12)nnc1cccn13
  EC50: > 200 µM
  IC50: > 200 µM

## Nc1cc(N2CCOCC2)nc(=O)n1-c1ccccc1
  EC50: > 200 µM
  IC50: > 200 µM

## COc1ccc2c(c1)CCN=C2Cc1ccccc1CCCl
  EC50: > 200 µM
  IC50: 26.3 µM

## CN(C1=NCCO1)c1cccc2c1CCCC2
  EC50: > 200 µM
  IC50: 4.47 µM

## CCCCCCCCCCCCCC(=O)NCC(=O)NC(CO)C(=O)NC(CO)C(=O)NC(CCCCN)C(=O)NC(CO)C(=O)NC(CCCCN)C(=O)N1CCCC1C(=O)NC(CCCCN)C(=O)NC(CC(=O)O)C(=O)N1CCCC1C(=O)NC(CO)C(=O)NC(CCC(N)=O)C(=O)NC(CCCNC(=N)N)C(=O)NC(CCCNC(=N)N)C(=O)NC(CCCNC(=N)N)C(=O)NC(Cc1ccc(O)cc1)C(N)=O (centres undefined) (Myristoyl-GSSKSKPKDPSQRRRY-NH2; configuration not given here)
  EC50: > 120 µM
  IC50: > 120 µM

## O=c1c2cc(S(=O)(=O)Nc3ccccc3Cl)ccc2ncn1NS(=O)(=O)c1ccc(Br)cc1
  outcome: inactive

## Cc1ccc(C2OC(COCc3ccc(Cl)cc3)C(OCc3ccc(Cl)cc3)C2O)cc1 (centres undefined)
  outcome: inactive

## Cn1c2c(c3nc(N)nc(N)c3c1=O)CCc1ccccc1-2
  EC50: > 200 µM
  IC50: 12.9 µM

## Cc1nn(-c2ccccn2)c2ncnc(N)c12
  EC50: > 200 µM
  IC50: 162 µM

## COc1ccc2nc3cc([N+](=O)[O-])ccc3c(NCCO)c2c1
  EC50: > 200 µM
  IC50: 1.05 µM

## O=C(/C=C/c1ccccc1O)c1ccccc1Cl
  EC50: > 38.9 µM
  IC50: > 38.9 µM

## CC(C)=C1C2C(C13C(=O)OC(C)(C)OC3=O)C2(C)C (centres undefined)
  EC50: > 490 µM
  IC50: > 490 µM

## CC(NNC(=O)CC(=O)N(C(=O)c1ccccc1)c1ccc(Cl)cc1)c1cc2ccccc2oc1=O (centres undefined)
  EC50: > 200 µM
  IC50: > 200 µM

## COc1ccc(/C=C/CN(C)CCc2ccccc2)cc1OC
  outcome: inactive

## O=C1Sc2ccc(Cl)cc2C(=O)N2CCSC12 (centres undefined)
  EC50: > 50.1 µM
  IC50: > 50.1 µM

## O=S(=O)(F)c1ccc(C[P+](c2ccccc2)(c2ccccc2)c2ccccc2)cc1Cl
  EC50: > 200 µM
  IC50: 97.7 µM

## C=C1C(=O)OC2/C=C(\COC(C)=O)CCC(OC(C)=O)C3=CC(OC3=O)C12 (centres undefined)
  EC50: > 36.3 µM
  IC50: 7.24 µM

## NS(=O)(=O)c1ccc(NC(=S)/N=C/c2c(O)c3ccccc3oc2=O)cc1
  EC50: > 200 µM
  IC50: 110 µM

## N#CC(NC12CC3CC(CC(C3)C1)C2)c1ccc2c(c1)OCO2 (centres undefined)
  outcome: inactive

## COc1ccc(C2c3cc4c(cc3OC(Nc3ccccc3)C2C)OCO4)cc1 (centres undefined)
  EC50: > 200 µM
  IC50: 24.5 µM

## COc1cc2c(cc1O)C1C(O2)c2ccc(OCc3ccccc3)cc2OC1(C)C (centres undefined)
  EC50: > 200 µM
  IC50: 15.1 µM

## CC(NC(=O)C1CCCN1C(=O)OCc1ccccc1)C(=O)O (centres undefined)
  EC50: > 776 µM
  IC50: > 776 µM

## CN=c1ncn(C)c2ncn(C/C=C(\C)CC[C@@]3(C)C(C)CCC4(O)C3CCCC4(C)C)c12 (some centres undefined)
  outcome: inactive

## CNc1ncc2nc(C)c(=O)n(C)c2n1
  EC50: > 200 µM
  IC50: > 200 µM
